Measured values reported in patent publication US8349899B1 (Arrowhead Center, Inc., priority 2008, dated 2013).
Read-outs that look alike come from different tables or passages of the source.

Experiments:
A549/ATCC = test: NCI60 growth inhibition, Non-Small Cell Lung A549/ATCC; assay type: cell-based; details: Homo sapiens
Source text: (§1) MSTCO was screened against the NCI60 tumor panel. Cell lines shown above represent lines common to all three screens, and growth inhibition is expressed as the concentration of drug (μM) that achieved 50% growth inhibition.

UO-31 = test: NCI60 growth inhibition, Renal UO-31; assay type: cell-based; details: Homo sapiens
Source text: as §1

CAKI-1 = test: NCI60 growth inhibition, Renal CAKI-1; assay type: cell-based; details: Homo sapiens
Source text: as §1

RPMI-8226 = test: NCI60 growth inhibition, Leukemia RPMI-8226; assay type: cell-based; details: Homo sapiens
Source text: as §1

SF-268 = test: NCI60 growth inhibition, Central Nervous System SF-268; assay type: cell-based; details: Homo sapiens
Source text: as §1

OVCAR-8 = test: NCI60 growth inhibition, Ovarian OVCAR-8; assay type: cell-based; details: Homo sapiens
Source text: as §1

NCI60 tumor panel = NCI60 tumor panel growth inhibition, whole panel; assay type: cell-based
UACC-62 = test: NCI60 growth inhibition, Melanoma UACC-62; assay type: cell-based; details: Homo sapiens
Source text: as §1

U251 = test: NCI60 growth inhibition, Central Nervous System U251; assay type: cell-based; details: Homo sapiens, U-251
Source text: as §1

SK-MEL-2 = test: NCI60 growth inhibition, Melanoma SK-MEL-2; assay type: cell-based; details: Homo sapiens
Source text: as §1

SF-295 = test: NCI60 growth inhibition, Central Nervous System SF-295; assay type: cell-based; details: Homo sapiens
Source text: as §1

SR = test: NCI60 growth inhibition, Leukemia SR; assay type: cell-based; details: Homo sapiens
Source text: as §1

SNB-19 = test: NCI60 growth inhibition, Central Nervous System SNB-19; assay type: cell-based; details: Homo sapiens
Source text: as §1

SK-MEL-28 = test: NCI60 growth inhibition, Melanoma SK-MEL-28; assay type: cell-based; details: Homo sapiens
Source text: as §1

TK-10 = test: NCI60 growth inhibition, Renal TK-10; assay type: cell-based; details: Homo sapiens
Source text: as §1

HT29 = test: NCI60 growth inhibition, Colon HT29; assay type: cell-based; details: Homo sapiens, HT-29
Source text: as §1

K-562 = test: NCI60 growth inhibition, Leukemia K-562; assay type: cell-based; details: Homo sapiens, K562
Source text: as §1

HCC-2998 = test: NCI60 growth inhibition, Colon HCC-2998; assay type: cell-based; details: Homo sapiens
Source text: as §1

ACHN = test: NCI60 growth inhibition, Renal ACHN; assay type: cell-based; details: Homo sapiens
Source text: as §1

SN12C = test: NCI60 growth inhibition, Renal SN12C; assay type: cell-based; details: Homo sapiens
Source text: as §1

OVCAR-4 = test: NCI60 growth inhibition, Ovarian OVCAR-4; assay type: cell-based; details: Homo sapiens
Source text: as §1

SK-OV-3 = test: NCI60 growth inhibition, Ovarian SK-OV-3; assay type: cell-based; details: Homo sapiens
Source text: as §1

UACC-257 = test: NCI60 growth inhibition, Melanoma UACC-257; assay type: cell-based; details: Homo sapiens
Source text: as §1

MOLT-4 = test: NCI60 growth inhibition, Leukemia MOLT-4; assay type: cell-based; details: Homo sapiens
Source text: as §1

HL-60(TB) = test: cells; assay type: cell-based; details: Homo sapiens; Leukemia HL-60(TB)
SK-MEL-5 = test: NCI60 growth inhibition, Melanoma SK-MEL-5; assay type: cell-based; details: Homo sapiens
Source text: as §1

786-0 = test: NCI60 growth inhibition, Renal 786-0; assay type: cell-based; details: Homo sapiens
Source text: as §1

EKVX = test: NCI60 growth inhibition, Non-Small Cell Lung EKVX; assay type: cell-based; details: Homo sapiens
Source text: as §1

NCI-H23 = test: NCI60 growth inhibition, Non-Small Cell Lung NCI-H23; assay type: cell-based; details: Homo sapiens
Source text: as §1

SW-620 = test: NCI60 growth inhibition, Colon SW-620; assay type: cell-based; details: Homo sapiens
Source text: as §1

M14 = test: NCI60 growth inhibition, Melanoma M14; assay type: cell-based
Source text: as §1

[1] = system: HeLa cervical adenocarcinoma cells; test: bipolar spindle formation in HeLa cells; assay type: cell-based, human
Description: Biochemical- and cell-based assays were used to evaluate the inhibitory activities of the STLC analogs. Using a commercially available assay from Cytoskeleton, Inc, analogs were assayed for their ability to block the microtubule-activated ATPase activity of recombinant human EG5 motor domain. In parallel, HeLa cells were treated for four hours with a range of concentrations, and then fixed, stained for microtubules, and mitotic cells were scored for spindle bipolarity.

KM12 = test: NCI60 growth inhibition, Colon KM12; assay type: cell-based; details: Homo sapiens
Source text: as §1

OVCAR-3 = test: NCI60 growth inhibition, Ovarian OVCAR-3; assay type: cell-based; details: Homo sapiens
Source text: as §1

HCT-116 = test: NCI60 growth inhibition, Colon HCT-116; assay type: cell-based; details: Homo sapiens
Source text: as §1

LOX IMVI = test: NCI60 growth inhibition, Melanoma LOX IMVI; assay type: cell-based; details: Homo sapiens
Source text: as §1

NCI-H522 = test: NCI60 growth inhibition, Non-Small Cell Lung NCI-H522; assay type: cell-based; details: Homo sapiens
Source text: as §1

IGROV1 = test: NCI60 growth inhibition, Ovarian IGROV1; assay type: cell-based; details: Homo sapiens, IGROV-1
Source text: as §1

HCT-15 = test: NCI60 growth inhibition, Colon HCT-15; assay type: cell-based; details: Homo sapiens
Source text: as §1

COLO 205 = test: NCI60 growth inhibition, Colon COLO 205; assay type: cell-based; details: Homo sapiens
Source text: as §1

SF-539 = test: NCI60 growth inhibition, Central Nervous System SF-539; assay type: cell-based; details: Homo sapiens
Source text: as §1

NCI-H322M = test: NCI60 growth inhibition, Non-Small Cell Lung NCI-H322M; assay type: cell-based; details: Homo sapiens
Source text: as §1

CCRF-CEM = test: NCI60 growth inhibition, Leukemia CCRF-CEM; assay type: cell-based; details: Homo sapiens
Source text: as §1

HOP-62 = test: NCI60 growth inhibition, Non-Small Cell Lung HOP-62; assay type: cell-based; details: Homo sapiens
Source text: as §1

OVCAR-5 = test: NCI60 growth inhibition, Ovarian OVCAR-5; assay type: cell-based; details: Homo sapiens
Source text: as §1

SNB-75 = test: NCI60 growth inhibition, Central Nervous System SNB-75; assay type: cell-based; details: Homo sapiens
Source text: as §1

NCI-H226 = test: NCI60 growth inhibition, Non-Small Cell Lung NCI-H226; assay type: cell-based; details: Homo sapiens
Source text: as §1

MALME-3M = test: NCI60 growth inhibition, Melanoma MALME-3M; assay type: cell-based; details: Homo sapiens
Source text: as §1

COc1ccc(C(SC[C@H](N)CO)(c2ccccc2)c2ccccc2)cc1 [Compound 1.0, 2-amino-3-[(4-methoxy-phenyl)-diphenyl-methylsulfanyl]-propan-1-ol]
GI50 (A549/ATCC): 330 nM
GI50 (UO-31): 1100 nM
GI50 (CAKI-1): 450 nM
GI50 (RPMI-8226): 30 nM
GI50 (SF-268): 110 nM
GI50 (OVCAR-8): 420 nM
anti-proliferative activity, initial single-dose screen (NCI60 tumor panel; 60 cancer cell lines, single dose 10 μM): promising activity
average increase in activity over Monastrol (NCI60 tumor panel; GI50, average over cell lines): 143 fold
average increase in activity over STLC (NCI60 tumor panel; GI50, average over cell lines): 35 fold
GI50 (NCI60 tumor panel; read-out: average GI50): 360 nM
GI50 (NCI60 tumor panel; read-out: highest GI50 of the range over the panel): 3000 nM
GI50 (NCI60 tumor panel; read-out: lowest GI50 of the range over the panel): 20 nM
GI50 (UACC-62): 250 nM
GI50 (U251): 190 nM
GI50 (SK-MEL-2): 240 nM
GI50 (SF-295): 280 nM
GI50 (SR): 10 nM
GI50 (SNB-19): 250 nM
GI50 (SK-MEL-28): 620 nM
GI50 (TK-10): 460 nM
GI50 (HT29): 340 nM
GI50 (K-562): 60 nM
GI50 (HCC-2998): 50 nM
GI50 (ACHN): 490 nM
GI50 (SN12C): 320 nM
GI50 (OVCAR-4): 1620 nM
GI50 (SK-OV-3): 80 nM
GI50 (UACC-257): 540 nM
GI50 (MOLT-4): 280 nM
GI50 (HL-60(TB)): 190 nM
GI50 (SK-MEL-5): 60 nM
GI50 (786-0): 440 nM
GI50 (EKVX): 510 nM
GI50 (NCI-H23): 260 nM
GI50 (SW-620): 70 nM
GI50 (M14; Homo sapiens, Melanoma M14): 20 nM
increase in activity over STLC (M14; melanoma cell line M14, GI50): 20 fold
increase in activity over monastrol (M14; melanoma cell line M14, GI50): 1200 fold
inhibitory activity in the cell-based assay ([1]; HeLa bipolar spindle formation): best performing analog
IC50 ([1]; Homo sapiens, HeLa, 4 h, read-out: Bipolar spindle formation IC50): 180 nM
GI50 (KM12): 220 nM
GI50 (OVCAR-3): 200 nM
GI50 (HCT-116): 30 nM
GI50 (LOX IMVI): 490 nM
GI50 (NCI-H522): 220 nM
GI50 (IGROV1): 260 nM
GI50 (HCT-15): 210 nM
GI50 (COLO 205): 80 nM
GI50 (SF-539): 260 nM
GI50 (NCI-H322M): 110 nM
GI50 (CCRF-CEM): 100 nM
GI50 (HOP-62): 510 nM
GI50 (OVCAR-5): 390 nM
GI50 (SNB-75): 260 nM
GI50 (NCI-H226): 2750 nM
GI50 (MALME-3M): 360 nM
